The results in this text go back to patent US12378249B2, “Isoquinoline compounds and uses thereof” (Genentech, Inc., priority 2018, dated 2025).

For this test, the target named is HPK1 (Homo sapiens (Human), UniProt Q92918, S171E/T165E). As to the kind of experiment: HPK1-FL HTRF Enzymatic Assay (HTRF). In kind it is biochemical. The conditions noted are these: HPK full length T165E S171E 0.125 nM, ATP 1 mM, Biotin-SLP76 100 nM, read-out: HPK1 Ki (nM), H = HTRF. As for the experimental part: Exemplary compounds of Formula (I) were tested to assess compound inhibition of HPK-1. The Ki for each exemplary compound was determined
HPK1, sequence (Q92918 whole entry T165E/S171E): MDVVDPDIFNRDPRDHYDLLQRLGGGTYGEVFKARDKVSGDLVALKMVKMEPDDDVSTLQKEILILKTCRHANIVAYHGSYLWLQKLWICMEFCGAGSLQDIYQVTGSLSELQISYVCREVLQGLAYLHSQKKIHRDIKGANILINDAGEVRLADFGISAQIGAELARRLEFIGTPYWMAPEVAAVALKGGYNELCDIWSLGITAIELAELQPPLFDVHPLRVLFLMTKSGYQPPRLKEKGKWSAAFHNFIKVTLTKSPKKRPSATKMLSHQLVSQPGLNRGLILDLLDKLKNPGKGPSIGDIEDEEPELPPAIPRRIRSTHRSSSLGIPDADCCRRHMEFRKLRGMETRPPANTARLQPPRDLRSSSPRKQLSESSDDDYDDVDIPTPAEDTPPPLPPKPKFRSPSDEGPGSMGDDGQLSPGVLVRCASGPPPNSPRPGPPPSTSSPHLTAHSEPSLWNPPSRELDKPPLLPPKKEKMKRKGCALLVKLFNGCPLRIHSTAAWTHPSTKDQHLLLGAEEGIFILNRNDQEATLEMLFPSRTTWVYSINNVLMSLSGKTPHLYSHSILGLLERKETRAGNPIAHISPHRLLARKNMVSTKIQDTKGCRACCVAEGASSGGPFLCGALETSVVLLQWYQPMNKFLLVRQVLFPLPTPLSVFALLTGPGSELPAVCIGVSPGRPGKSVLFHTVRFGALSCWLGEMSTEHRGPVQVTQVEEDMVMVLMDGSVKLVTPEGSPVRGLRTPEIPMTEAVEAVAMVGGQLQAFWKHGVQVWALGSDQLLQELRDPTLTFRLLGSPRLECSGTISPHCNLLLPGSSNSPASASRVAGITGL
Example B1: HPK1-FL HTRF Enzymatic Assay (“HTRF”)
HPK-FL enzyme phosphorylates Biotin-SLP-76 substrate in the presence of ATP at 1 mM and varying concentrations of test compound. Product is detected by FRET using Eu-anti-pSLP76 Ab and SA-XL665. Also see www.cisbio.com/HTRF for additional HTRF technology information.
• Echo555 compound dispenser • Agilent Bravo • Perkin Elmer Envision Final Assay Conditions:
Materials: • Assay plate: White ProxiPlate 384 F (PerkinElmer cat #6008289) • Kinase: HPK full length double mutant • Substrate: Biotin-SLP76 • ATP: 100 mM ATP • BSG: 2% BSG • DMSO: DMSO (Sigma cat #34869-100ML) • Reaction Buffer: H2O/50 mM HEPES, pH 7.5/10 mM MgCl2/2 mM TCEP/0.01% Brij-35/0.01% BSG • Detection mix:Eu-anti-pSLP76/SA-XL665 (Cisbio, #610SAXAC) Assay Procedure Ki determination:
To a 384 well Proxiplate with 80 nL compound or DMSO spotted on was added 4 μl/well kinase mix. The mixture was preincubated for 30 minutes and then 4 μl/well substrate mix was added. The solution was incubated for 60 min and then 4 μl/well detection mix was added. The solution was incubated for another 60 min. The plates were then loaded onto a Perkin Elmer Envision and the TR-FRET signal was measured at 615 and 665 nm. A ratio of […] was used to calculate the % activity at each concentration of compound.
Background: In TR-FRET formats the signal depends on donor and acceptor labels being close together.
A word on the Ki: it is a dissociation constant, usually derived from enzyme kinetics or from competition with a known ligand. As to `CN[C@H]1CCN(c2cc(C)c(-c3cc4cc(Nc5cc6n(n5)CC(=O)N(C)CC6)ncc4cc3F)cn2)C1` (single isomer, unassigned) [Compound 206b], the inhibition constant Ki turned out to be 6.2 nM.
For `Cc1c(-c2cc3cc(Nc4cc5n(n4)CC(=O)N(C)CC5)ncc3cc2F)cnc2c1[C@@](C)(O)CCO2` (single isomer, unassigned) [Compound 226a] the value was 18 nM; for `Cc1c(-c2cc3cc(Nc4cc5n(n4)CC(=O)N(C)CC5)ncc3cc2F)cnc2c1[C@](C)(O)CCO2` (single isomer, unassigned) [Compound 226b], 1.9 nM; for `CN[C@@H]1CCc2c(-c3cc4cc(Nc5cc6n(n5)CC(=O)N(C)CC6)ncc4cc3F)cncc21` (single isomer, unassigned) [Compound 228a], 8.3 nM.
For the compound `CN[C@H]1CCc2c(-c3cc4cc(Nc5cc6n(n5)CC(=O)N(C)CC6)ncc4cc3F)cncc21` (single isomer, unassigned) [Compound 228b], the Ki was found to be 446 nM.
Then `Cc1c(-c2cc3cc(Nc4cc5n(n4)CC(=O)N(C)CC54CC4)ncc3cc2F)cnc2c1NCC[C@]2(C)O` (single isomer, unassigned) [Compound 229a], with 0.09 nM; and `Cc1c(-c2cc3cc(Nc4cc5n(n4)CC(=O)N(C)CC54CC4)ncc3cc2F)cnc2c1NCC[C@@]2(C)O` (single isomer, unassigned) [Compound 229b], with 0.016 nM.
Then `Cc1c(-c2cc(F)c3cnc(Nc4cc5n(n4)CC(=O)N(C)CC5)cc3c2)cnc2c1NCC[C@@]2(C)O` (single isomer, unassigned) [Compound 231a], with 1.3 nM; and `Cc1c(-c2cc(F)c3cnc(Nc4cc5n(n4)CC(=O)N(C)CC5)cc3c2)cnc2c1NCC[C@]2(C)O` (single isomer, unassigned) [Compound 231b], with 0.38 nM.
For `CO[C@H]1CCNc2c1ncc(-c1cc(F)c3cnc(Nc4cc5n(n4)CC(=O)N(C)CC5)cc3c1)c2C` (single isomer, unassigned) [Compound 234a] the value was 0.46 nM; for `CO[C@@H]1CCNc2c1ncc(-c1cc(F)c3cnc(Nc4cc5n(n4)CC(=O)N(C)CC5)cc3c1)c2C` (single isomer, unassigned) [Compound 234b], 2.1 nM; for `Cc1c(-c2cc3cc(Nc4cc5n(n4)CC(=O)N(C)CC5)ncc3cc2F)cnc2c1[C@@H](F)CCO2` (single isomer, unassigned) [Compound 235a], 2.1 nM.
On to `Cc1c(-c2cc3cc(Nc4cc5n(n4)CC(=O)N(C)CC5)ncc3cc2F)cnc2c1[C@H](F)CCO2` (single isomer, unassigned) [Compound 235b], for which the Ki was determined as 0.127 nM.
For `Cc1c(-c2cc3cc(Nc4cc5n(n4)CC(=O)N(C)CC5)ncc3cc2F)cnc2c1NCC[C@@H]2O` (single isomer, unassigned) [Compound 236a] the value was 0.076 nM; for `Cc1c(-c2cc3cc(Nc4cc5n(n4)CC(=O)N(C)CC5)ncc3cc2F)cnc2c1NCC[C@H]2O` (single isomer, unassigned) [Compound 236b], 0.062 nM; for `Cc1c(-c2cc(F)c3cnc(Nc4cc5n(n4)CC(=O)N(C)CC54CC4)cc3c2)cnc2c1NCC[C@@H]2O` (single isomer, unassigned) [Compound 237a], 0.332 nM.
Then `Cc1c(-c2cc(F)c3cnc(Nc4cc5n(n4)CC(=O)N(C)CC54CC4)cc3c2)cnc2c1NCC[C@H]2O` (single isomer, unassigned) [Compound 237b], with 0.319 nM.
For `Cc1c(-c2cc3cc(Nc4cc5n(n4)CC(=O)N(C)CC5)ncc3cc2F)cnc2c1NCC(C)(C)[C@H]2O` (single isomer, unassigned) [Compound 241a] the value was 0.11 nM; for `Cc1c(-c2cc3cc(Nc4cc5n(n4)CC(=O)N(C)CC5)ncc3cc2F)cnc2c1NCC(C)(C)[C@@H]2O` (single isomer, unassigned) [Compound 241b], 0.265 nM.
As to `Cc1c(-c2cc3cc(Nc4cc5n(n4)CS(=O)(=O)N(C)C5)ncc3cc2F)cnc2c1NCC[C@@H]2O` (single isomer, unassigned) [Compound 242a], the Ki came out at 0.457 nM.
For `Cc1c(-c2cc3cc(Nc4cc5n(n4)CS(=O)(=O)N(C)C5)ncc3cc2F)cnc2c1NCC[C@H]2O` (single isomer, unassigned) [Compound 242b] the value was 1.7 nM.
Then `Cc1c(-c2cc3cc(Nc4cc5n(n4)Cc4nccn4CC5)ncc3cc2F)cnc2c1NCC[C@@H]2O` (single isomer, unassigned) [Compound 243a], with 0.013 nM; and `Cc1c(-c2cc3cc(Nc4cc5n(n4)Cc4nccn4CC5)ncc3cc2F)cnc2c1NCC[C@H]2O` (single isomer, unassigned) [Compound 243b], with 0.02 nM.
With `Cc1ccncc1-c1cc2cc(Nc3cc4n(n3)CC(=O)N(C)CC4)ncc2c(Cl)c1F` [Compound 110, 2-[[8-Chloro-7-fluoro-6-(4-methylpyridin-3-yl)isoquinolin-3-yl]amino]-6-methyl-4H,5H,6H,7H,8H-pyrazolo[1,5-d][1,4]diazepin-7-one], the Ki came out at 4.6 nM.
For `Cc1c(N)cncc1-c1cc2cc(Nc3cc4n(n3)CC(=O)N(C)CC43CC3)ncc2cc1F` [Compound 111, 2-[[6-(5-amino-4-methyl-3-pyridyl)-7-fluoro-3-isoquinolyl]amino]-6-methyl-spiro[5,8-dihydropyrazolo[1,5-d][1,4]diazepine-4,1′-cyclopropane]-7-one] the value was 0.01 nM; for `Cc1c(N)cncc1-c1cc2cc(Nc3cc4n(n3)CS(=O)(=O)N(C)CC4C)ncc2cc1F` (stereo not shown) [Compound 113, 2-((6-(5-amino-4-methylpyridin-3-yl)-7-fluoroisoquinolin-3-yl)amino)-4,6-dimethyl-5,6-dihydro-4H,8H-pyrazolo[5,1-e][1,2,6]thiadiazepine 7,7-dioxide], 1.2 nM.
With `Cc1ccncc1-c1cc2cc(Nc3cn4c(n3)CC(=O)N(C)CC4)ncc2c(Cl)c1F` [Compound 114, 2-((8-chloro-7-fluoro-6-(4-methylpyridin-3-yl)isoquinolin-3-yl)amino)-7-methyl-6,7-dihydro-5H-imidazo[1,2-d][1,4]diazepin-8(9H)-one], the Ki came to 75 nM.
For `Cc1c(-c2cc3cc(Nc4cc5n(n4)CC(=O)N(C(C)C)CC5)ncc3c(Cl)c2F)cnc2c1NCCO2` [Compound 115, 2-((8-chloro-7-fluoro-6-(8-methyl-2,3-dihydro-1H-pyrido[2,3-b][1,4]oxazin-7-yl)isoquinolin-3-yl)amino)-6-isopropyl-5,6-dihydro-4H-pyrazolo[1,5-d][1,4]diazepin-7(8H)-one] the value was 0.2 nM; for `Cc1c(-c2cc3cc(Nc4cc5n(n4)CC(=O)N(C(C)C)CC5)ncc3cc2F)cnc2c1NCCO2` [Compound 116, 2-((7-fluoro-6-(8-methyl-2,3-dihydro-1H-pyrido[2,3-b][1,4]oxazin-7-yl)isoquinolin-3-yl)amino)-6-isopropyl-5,6-dihydro-4H-pyrazolo[1,5-d][1,4]diazepin-7(8H)-one], 0.014 nM; for `Cc1c(N)cncc1-c1cc(Cl)c2cnc(Nc3cc4n(n3)CC(=O)N(C(C)C)CC4)cc2c1` [Compound 117, 2-((6-(5-amino-4-methylpyridin-3-yl)-8-chloroisoquinolin-3-yl)amino)-6-isopropyl-5,6-dihydro-4H-pyrazolo[1,5-d][1,4]diazepin-7(8H)-one], 0.64 nM.
For `Cc1c(N)cncc1-c1cc2cc(Nc3cc4n(n3)CC(=O)N(C)C(C)(C)C4)ncc2cc1F` [Compound 120, 2-((6-(5-amino-4-methylpyridin-3-yl)-7-fluoroisoquinolin-3-yl)amino)-5,5,6-trimethyl-5,6-dihydro-4H-pyrazolo[1,5-d][1,4]diazepin-7(8H)-one] the value was 0.04 nM.
Then `Cc1c(N)cncc1-c1cc2cc(Nc3cc4n(n3)CC(=O)N(C(C)C)CC4)ncc2c(C)c1F` [Compound 121, 2-((6-(5-amino-4-methylpyridin-3-yl)-7-fluoro-8-methylisoquinolin-3-yl)amino)-6-isopropyl-5,6-dihydro-4H-pyrazolo[1,5-d][1,4]diazepin-7(8H)-one], with 0.08 nM; and `Cc1ccncc1-c1ccc2cnc(Nc3cc4n(n3)CC(=O)N(C(C)C)CC4)cc2c1` [Compound 122, 6-isopropyl-2-[[6-(4-methyl-3-pyridyl)-3-isoquinolyl]amino]-5,8-dihydro-4H-pyrazolo[1,5-d][1,4]diazepin-7-one], with 1 nM; and `Cc1c(-c2cc3cc(Nc4cc5n(n4)CC(=O)N(C(C)C)CC5)ncc3cc2F)cnc2c1NC(=O)CO2` [Compound 123, 7-[7-fluoro-3-[(6-isopropyl-7-oxo-5,8-dihydro-4H-pyrazolo[1,5-d][1,4]diazepin-2-yl)amino]-6-isoquinolyl]-8-methyl-1H-pyrido[2,3-b][1,4]oxazin-2-one], with 0.11 nM.
